Source: US4831170A, “Pharmaceutically active phospino-hydrocarbon-group VIII-metal complexes, antitumor compositions containing these complexes, and a process for preparing said compounds or antitumor compositions” (priority 1985, dated 1989)

Experiments:
[1] = Struck et al., J. Med. Chem., 9, 414 (1966); cited from earlier work
P388 murine leukemia = assay: Antitumor activity against P388 murine leukemia in CDF1 mice; type: in vivo; settings: 1 x on day 1; for P 388 Dose producing the maximum % T/C: administered ip; for P 388 Maximum % T/C: median survival time treated/saline control x 100, ip, active if ≥125
Description: (§1) All of the metal complexes were tested for antitumor activity against P388 murine leukemia. Selected compounds were also tested for antitumor activity against L1210 murine leukemia and a subline of L1210 murine leukemia resistant to cisplatin (L1210:DDP). CDF1 mice weighing 20 grams were inoculated intraperitoneally with 10^6 ascites cells of P388 leukemia, L1210 leukemia or L1210:DDP leukemia, depending on the test system being used. Drug administration was initiated the day following tumor implantation in all test systems. The complexes were administered at various dose levels by intraperitoneal injection. Groups of four to six mice were used for each dose level and they were treated with the complex on day one only. A group of ten saline treated control mice was included in each experiment. Cisplatin treated groups were included as a positive control in each experiment. The mice were weighed before treatment and again on day five or six and the average weight change used as a measure of toxicity. The animals were observed daily for mortality and the experiments terminated after 30 days. Antitumor activity was determined based on % T/C, which is the ratio of the median survival time of the drug treated group to the median survival time of the saline treated control group times 100. The saline treated mice usually have a median survival time of 9 days with P388 leukemia and 7 days with L1210 and L1210/DDP leukemia. A complex is considered active if it produces a % T/C of ≥125.
(§2) Tables II and IIa contain summaries of the evaluations of the compounds for antitumor activity against the murine leukemias. Listed for each compound is the maximum % T/C achieved and the dose producing that effect.
(§3) For the in vitro cytotoxicity studies the drugs were dissolved or suspended, depending on their solubility, in 0.9% NaCl solution. Occasionally, 5% dextrose in water or 10% DMSO in 0.9% NaCl was used. The compounds were prepared for in vivo treatment by dissolving or suspending, with the addition of minimal amounts of Tween 80, in water.

L1210 murine leukemia = assay: Antitumor activity against L1210 murine leukemia in CDF1 mice; type: in vivo; settings: day 1; for L1210 Dose producing the maximum % T/C: administered ip; for L1210 Max. % T/C: median survival time treated/saline control x 100, ip, active if ≥125
Description: as §1, §2, §3

B16 Melanoma = assay: Antitumor activity against B16 Melanoma in BDF1 mice; type: in vivo; settings: for B 16 Dose producing the maximum % T/C: administered ip, days 1-9; for B 16 Maximum % T/C: median survival time vs saline control, ip, daily days 1-9, active if ≥125, figures separated by slashes are from separate experiments
Description: Several of the metal complexes were additionally evaluated for antitumor activity against B16 Melanoma. BDF1 mice, 10 per group, were inoculated intraperitoneally with 0.5 ml of a 10 percent (w:v) brei of B16 Melanoma. Intraperitoneal treatment with the metal complexes was initiated one day after implant and continued daily for a total of nine days. From 4 to 5 doses were tested for each compound under study. A saline treated control group and cisplatin treated groups were included in each experiment. The mice were observed daily for survivors and the experiments terminated after 60 days. […] The median survival time of the drug treated mice relative to that of the controls (% T/C) was used as a measure of antitumor activity.
Occasionally, 5% dextrose in water or 10% DMSO in 0.9% NaCl was used. The compounds were prepared for in vivo treatment by dissolving or suspending, with the addition of minimal amounts of Tween 80, in water.

[2] = system: L1210 murine leukemia resistant to cisplatin (L1210:DDP); assay: Antitumor activity against cisplatin-resistant L1210 murine leukemia (L1210/DDP) in CDF1 mice; type: in vivo; settings: cisplatin-resistant subline, day 1; for L1210/DDP Dose producing the maximum % T/C: administered ip; for L1210/DDP Max. % T/C: done concomitantly with L1210 test, ip, active if ≥125
Description: as §1, §2, §3

[3] = system: B16-F10 murine melanoma cells; assay: In vitro cytotoxicity, B16-F10 murine melanoma cells (72 h, crystal violet); type: cell-based
Description: (§4) Logarithmically growing cells were harvested by mild trypsinization and 4000 cells were added to each well of a 96-well microtiter plate (Costar). […] The cells were then treated with a metal complex or cisplatin and incubated for 72 hours. The plates were inverted and shaken to remove media, drug and detached cells. […] The fixative was removed, the plates air dried, stained with 0.0075% crystal violet for 15 minutes, washed twice and air dried. The stain was solubilized with 0.2 ml of 0.1 M AcOH/EtOH (1:1) and optical densities determined using a Dynatech MR600 microtiter plate reader. […] The compounds were prepared for in vivo treatment by dissolving or suspending, with the addition of minimal amounts of Tween 80, in water.

[4] = system: HCT-116 human colon carcinoma cells; assay: In vitro cytotoxicity, HCT-116 human colon carcinoma cells (72 h, crystal violet); type: cell-based; settings: HCT-116 cells
Description: as §4

Row | SMILES | cytotoxic activity [1] | P 388 Dose producing the maximum % T/C (P388 murine leukemia) | P 388 Maximum % T/C (P388 murine leukemia) | L1210 Dose producing the maximum % T/C (L1210 murine leukemia) | L1210 Max. % T/C (L1210 murine leukemia) | B 16 Dose producing the maximum % T/C (B16 Melanoma) | B 16 Maximum % T/C (B16 Melanoma) | L1210/DDP Dose producing the maximum % T/C [2] | L1210/DDP Max. % T/C [2] | IC 50 (concentration which inhibits cell growth by 50%), B 16 [3] | IC 50 (concentration which inhibits cell growth by 50%), HCT 116 [4]
1 | c1ccc(P(CCP(c2ccccc2)c2ccccc2)c2ccccc2)cc1 [1,2-bis-(diphenylphosphino)ethane, 1,2-bis(diphenylphosphino)ethane] | cytotoxic activity | – | – | – | – | – | – | – | – | – | –
2 | O=[N+]([O-])[O-].O=[N+]([O-])[O-].[Co+2].c1ccc(P(CCP(c2ccccc2)c2ccccc2)c2ccccc2)cc1.c1ccc(P(CCP(c2ccccc2)c2ccccc2)c2ccccc2)cc1 [TNO 347, Bis[1,2-bis(diphenylphosphino)ethane]nitrato cobalt(II) nitrate] | – | 100 mg/kg | 161 % T/C | 100 mg/kg | 100 % T/C | 20 mg/kg/inj. | 171 % T/C | 50 mg/kg | 150 % T/C | 413 µg/mL | > 500 µg/mL
3 | O=[N+]([O-])[O-].O=[N+]([O-])[O-].[Ni+2].c1ccc(P(CCP(c2ccccc2)c2ccccc2)c2ccccc2)cc1.c1ccc(P(CCP(c2ccccc2)c2ccccc2)c2ccccc2)cc1 [TNO 354, Bis[1,2-bis(diphenylphosphino)ethane]nickel(II) dinitrate] | – | 50 mg/kg | 139 % T/C | 80 mg/kg | 100 % T/C | 30 mg/kg/inj. | 183 % T/C | 80 mg/kg | 138 % T/C | 4.1 µg/mL | 1.3 µg/mL
